Measurements published in US20100092429A1, “Composition” (Danisco A/S, priority 2006, published 2010).
Like-named read-outs stand apart in the source and are kept apart here.

Assays:
[1] = test system: Bifidobacterium lactis BI-04; format: cell-based; conditions: 1 w/v-% carbohydrate, 37° C.
[2] = test system: Lactobacilli and S. thermophilus; assay: Growth on single carbohydrates, summary for Lactobacilli and S. thermophilus; format: cell-based; conditions: summary in words of Tables 7 and 8

OC[C@H]1O[C@H](O)[C@H](O)[C@@H](O)[C@@H]1O [Glucose, Alpha-D-Glucose]
absorbance (OD 600 nm) ([1]; Table 3 test, time 0 h): 0.345 | absorbance (OD 600 nm) ([1]; Table 3 test, time 0.5 h): 0.3508 | absorbance (OD 600 nm) ([1]; Table 3 test, time 1 h): 0.3557 | absorbance (OD 600 nm) ([1]; Table 3 test, time 1.5 h): 0.3612 | absorbance (OD 600 nm) ([1]; Table 3 test, time 2 h): 0.366 | absorbance (OD 600 nm) ([1]; Table 3 test, time 2.5 h): 0.3717 | absorbance (OD 600 nm) ([1]; Table 3 test, time 3 h): 0.3794 | absorbance (OD 600 nm) ([1]; Table 3 test, time 3.5 h): 0.3884 | absorbance (OD 600 nm) ([1]; Table 3 test, time 4 h): 0.4001 | absorbance (OD 600 nm) ([1]; Table 3 test, time 4.5 h): 0.4149 | absorbance (OD 600 nm) ([1]; Table 3 test, time 5 h): 0.4363 | absorbance (OD 600 nm) ([1]; Table 3 test, time 5.5 h): 0.4576 | absorbance (OD 600 nm) ([1]; Table 3 test, time 6 h): 0.4843 | absorbance (OD 600 nm) ([1]; Table 3 test, time 6.5 h): 0.5156 | absorbance (OD 600 nm) ([1]; Table 3 test, time 7 h): 0.549 | absorbance (OD 600 nm) ([1]; Table 3 test, time 7.5 h): 0.5855 | absorbance (OD 600 nm) ([1]; Table 3 test, time 8 h): 0.6269 | absorbance (OD 600 nm) ([1]; Table 3 test, time 8.5 h): 0.6688 | absorbance (OD 600 nm) ([1]; Table 3 test, time 9 h): 0.7126 | absorbance (OD 600 nm) ([1]; Table 3 test, time 9.5 h): 0.7528 | absorbance (OD 600 nm) ([1]; Table 3 test, time 10 h): 0.7957 | absorbance (OD 600 nm) ([1]; Table 3 test, time 10.5 h): 0.8301 | absorbance (OD 600 nm) ([1]; Table 3 test, time 11 h): 0.8645 | absorbance (OD 600 nm) ([1]; Table 3 test, time 11.5 h): 0.897 | absorbance (OD 600 nm) ([1]; Table 3 test, time 12 h): 0.927 | absorbance (OD 600 nm) ([1]; Table 3 test, time 12.5 h): 0.9517 | absorbance (OD 600 nm) ([1]; Table 3 test, time 13 h): 0.9725 | absorbance (OD 600 nm) ([1]; Table 3 test, time 13.5 h): 0.9899 | absorbance (OD 600 nm) ([1]; Table 3 test, time 14 h): 1.0031 | absorbance (OD 600 nm) ([1]; Table 3 test, time 14.5 h): 1.0267 | absorbance (OD 600 nm) ([1]; Table 3 test, time 15 h): 1.0406 | absorbance (OD 600 nm) ([1]; Table 3 test, time 15.5 h): 1.05 | absorbance (OD 600 nm) ([1]; Table 3 test, time 16 h): 1.063 | absorbance (OD 600 nm) ([1]; Table 3 test, time 16.5 h): 1.0769 | absorbance (OD 600 nm) ([1]; Table 3 test, time 17 h): 1.0841 | absorbance (OD 600 nm) ([1]; Table 3 test, time 17.5 h): 1.1062 | absorbance (OD 600 nm) ([1]; Table 3 test, time 18 h): 1.1201 | absorbance (OD 600 nm) ([1]; Table 3 test, time 18.5 h): 1.1494 | absorbance (OD 600 nm) ([1]; Table 3 test, time 19 h): 1.1729 | absorbance (OD 600 nm) ([1]; Table 3 test, time 19.5 h): 1.1942 | absorbance (OD 600 nm) ([1]; Table 3 test, time 20 h): 1.2233 | absorbance (OD 600 nm) ([1]; Table 3 test, time 20.5 h): 1.2352 | absorbance (OD 600 nm) ([1]; Table 3 test, time 21 h): 1.27 | absorbance (OD 600 nm) ([1]; Table 3 test, time 21.5 h): 1.2882 | absorbance (OD 600 nm) ([1]; Table 3 test, time 22 h): 1.2935 | absorbance (OD 600 nm) ([1]; Table 3 test, time 22.5 h): 1.312 | absorbance (OD 600 nm) ([1]; Table 3 test, time 23 h): 1.3311 | absorbance (OD 600 nm) ([1]; Table 3 test, time 23.5 h): 1.3389 | absorbance (OD 600 nm) ([1]; Table 3 test, time 24 h): 1.3477 | absorbance (OD 600 nm) ([1]; Table 4 further test, time 0 h): 0.358 | absorbance (OD 600 nm) ([1]; Table 4 further test, time 0.5 h): 0.3615 | absorbance (OD 600 nm) ([1]; Table 4 further test, time 1 h): 0.3671 | absorbance (OD 600 nm) ([1]; Table 4 further test, time 1.5 h): 0.3772 | absorbance (OD 600 nm) ([1]; Table 4 further test, time 2 h): 0.3899 | absorbance (OD 600 nm) ([1]; Table 4 further test, time 2.5 h): 0.407 | absorbance (OD 600 nm) ([1]; Table 4 further test, time 3 h): 0.4301 | absorbance (OD 600 nm) ([1]; Table 4 further test, time 3.5 h): 0.4552 | absorbance (OD 600 nm) ([1]; Table 4 further test, time 4 h): 0.4845 | absorbance (OD 600 nm) ([1]; Table 4 further test, time 4.5 h): 0.5215 | absorbance (OD 600 nm) ([1]; Table 4 further test, time 5 h): 0.5712 | absorbance (OD 600 nm) ([1]; Table 4 further test, time 5.5 h): 0.6208 | absorbance (OD 600 nm) ([1]; Table 4 further test, time 6 h): 0.6769 | absorbance (OD 600 nm) ([1]; Table 4 further test, time 6.5 h): 0.7519 | absorbance (OD 600 nm) ([1]; Table 4 further test, time 7 h): 0.824 | absorbance (OD 600 nm) ([1]; Table 4 further test, time 7.5 h): 0.8944 | absorbance (OD 600 nm) ([1]; Table 4 further test, time 8 h): 0.9606 | absorbance (OD 600 nm) ([1]; Table 4 further test, time 8.5 h): 1.0277 | absorbance (OD 600 nm) ([1]; Table 4 further test, time 9 h): 1.0871 | absorbance (OD 600 nm) ([1]; Table 4 further test, time 9.5 h): 1.1209 | absorbance (OD 600 nm) ([1]; Table 4 further test, time 10 h): 1.1556 | absorbance (OD 600 nm) ([1]; Table 4 further test, time 10.5 h): 1.189 | absorbance (OD 600 nm) ([1]; Table 4 further test, time 11 h): 1.2217 | absorbance (OD 600 nm) ([1]; Table 4 further test, time 11.5 h): 1.2528 | absorbance (OD 600 nm) ([1]; Table 4 further test, time 12 h): 1.2826 | absorbance (OD 600 nm) ([1]; Table 4 further test, time 12.5 h): 1.3101 | absorbance (OD 600 nm) ([1]; Table 4 further test, time 13 h): 1.3368 | absorbance (OD 600 nm) ([1]; Table 4 further test, time 13.5 h): 1.3586 | absorbance (OD 600 nm) ([1]; Table 4 further test, time 14 h): 1.3745 | absorbance (OD 600 nm) ([1]; Table 4 further test, time 14.5 h): 1.388 | absorbance (OD 600 nm) ([1]; Table 4 further test, time 15 h): 1.4068 | absorbance (OD 600 nm) ([1]; Table 4 further test, time 15.5 h): 1.4166 | absorbance (OD 600 nm) ([1]; Table 4 further test, time 16 h): 1.43 | absorbance (OD 600 nm) ([1]; Table 4 further test, time 16.5 h): 1.4441 | absorbance (OD 600 nm) ([1]; Table 4 further test, time 17 h): 1.4486 | absorbance (OD 600 nm) ([1]; Table 4 further test, time 17.5 h): 1.4526 | absorbance (OD 600 nm) ([1]; Table 4 further test, time 18 h): 1.4654 | absorbance (OD 600 nm) ([1]; Table 4 further test, time 18.5 h): 1.4724 | absorbance (OD 600 nm) ([1]; Table 4 further test, time 19 h): 1.472 | absorbance (OD 600 nm) ([1]; Table 4 further test, time 19.5 h): 1.4796 | absorbance (OD 600 nm) ([1]; Table 4 further test, time 20 h): 1.4864 | absorbance (OD 600 nm) ([1]; Table 4 further test, time 20.5 h): 1.491 | absorbance (OD 600 nm) ([1]; Table 4 further test, time 21 h): 1.4946 | absorbance (OD 600 nm) ([1]; Table 4 further test, time 21.5 h): 1.4988 | absorbance (OD 600 nm) ([1]; Table 4 further test, time 22 h): 1.5015 | absorbance (OD 600 nm) ([1]; Table 4 further test, time 22.5 h): 1.5046 | absorbance (OD 600 nm) ([1]; Table 4 further test, time 23 h): 1.5061 | absorbance (OD 600 nm) ([1]; Table 4 further test, time 23.5 h): 1.5092 | absorbance (OD 600 nm) ([1]; Table 4 further test, time 24 h): 1.5092 | fermentation of the carbohydrate by Lactobacilli and S. thermophilus [2]: all these bacteria fermented with glucose
